Results taken from publication PMC6723440 (Toxins, 2019).
Like-named read-outs stand apart in the source and are kept apart here.

Legend:
[1] = human, pH 7.4
[2] = human; for percentage of metabolized parent toxin in phase I reactions: microsomes, 1 h
[3] = human; cited from earlier work
[4] = in vivo; cited from earlier work
[5] = human, pH 7.4; remark: listed apart in the source

CC(=O)O[C@@H]1C[C@]2(C)[C@@]3(CO)[C@H](O)C(=O)C(C)=C[C@H]3O[C@H]1[C@@]21CO1 [3-AcDON, 3-acetyldeoxynivalenol]
LC-MS Library: metabolites generated [1]: Phase I metabolites: DON Glucuronides: Gluc-3-AcDON | converted into DON ([2]; pH 7.4): 50% | metabolized to DON [3]: 78%

CC(=O)OC[C@]12[C@H](O)C(=O)C(C)=C[C@H]1O[C@@H]1[C@H](O)C[C@@]2(C)[C@]12CO2 [15-AcDON, 15-acetyldeoxynivalenol]
LC-MS Library: metabolites generated [1]: Phase I metabolites: DON Glucuronides: Gluc-15-AcDON | converted into DON ([2]; pH 7.4): 1%

CC1=C[C@H]2O[C@@H]3[C@H](O)C[C@](C)([C@@]2(CO)[C@H](O)C1=O)[C@]31CO1 [DON, deoxynivalenol]
LC-MS Library: metabolites generated [1]: Phase I metabolites: NIV, DOM-1 and its two isomers, Glucuronides: 15-Gluc-DON, 3-Gluc-DON | predominant species in urine [4]: 27% | total urinary DON present as free DON [4]: 27.4% | total urinary deoxynivalenol (DON) composed of its glucuronides (15-Gluc-DON and 3-Gluc-DON) [4]: approximately 72.6% | converted into DNIV ([2]; pH 7.4): less than 1%

CC(=O)OC[C@]12C[C@H](OC(=O)CC(C)C)C(C)=C[C@H]1O[C@@H]1[C@H](O)[C@@H](O)[C@@]2(C)[C@]12CO2 [HT-2, HT-2 toxin]
LC-MS Library: metabolites generated [1]: Phase I metabolites: 4-de-Ac-NEO and its isomer, 3′-OH-HT-2, 4′-OH-HT-2 and its isomer Three OH-T-2 metabolites at 7 or 10 or 16-OH-HT-2 Two unknown metabolites Glucuronides: Gluc-3-HT-2

CC1=C[C@H]2O[C@@H]3[C@H](O)[C@@H](O)[C@](C)([C@@]2(CO)[C@H](O)C1=O)[C@]31CO1 [NIV, nivalenol]
glucuronidation [5]: < 1% | converted into DNIV ([2]; pH 7.4): 5%

CC(=O)OCC12CC(OC(=O)CC(C)C)C(C)=CC1OC1C(OC3OC(C(=O)O)C(O)C(O)C3O)C(OC(C)=O)C2(C)C12CO2 (stereo not drawn) [T-2 glucuronide]
share of glucuronide form [5]: 8%

C[C@H]1CCCC(=O)CCCCCc2cc(O)cc(O)c2C(=O)O1 [ZAN, zearalanone]
Total Number of Glucuronides [5]: 24 | converted into glucoronides [5]: 93% | glucuronides of oxidized metabolites and double glucuronides (minor products) [5]: 19% | glucuronides of parent toxins at position C-14 [5]: 73% | share of species, Figure 7 pie [5]: 7% | sum of parent glucuronides [5]: 74% | LC-MS Library: metabolites generated [1]: Phase I metabolites: (-(H2) +(O))-ZAN, (+(O))-ZAN, (+(H2)+ (O))-ZAN, (+(O2))-ZAN, (-(H2) +(O2))-ZAN Glucuronides: Gluc-16-ZAN, Gluc-14-ZAN, Gluc-(+O)- ZAN, 2xGluc- ZAN, Gluc-(+(H2)+(O))-ZAN, 2 × Gluc-(+O)-ZAN, 2 × Gluc-(+(H2)+(O))-ZAN | percentage of metabolized parent toxin in phase I reactions ([2]; pH 7.4): 66% | Number of Metabolites (n): Desaturation oxidation, −(H2) +(O2) ([2]; pH 7.4): 2 | Number of Metabolites (n): Desaturation, oxidation, −(H2) +(O) ([2]; pH 7.4): 1 | Number of Metabolites (n): Desaturation, oxidation, −(H4) +(O) ([2]; pH 7.4): 0 | Number of Metabolites (n): Oxidation +(O) ([2]; pH 7.4): 5(23%) | Number of Metabolites (n): Oxidation, +(O2) ([2]; pH 7.4): 6(27%) | Number of Metabolites (n): Oxidation, −(H4) +(O2) ([2]; pH 7.4): 0 | share of Oxidation +(O) metabolites in ∑ n ([2]; pH 7.4): 5(23%) | share of Oxidation, +(O2) metabolites in ∑ n ([2]; pH 7.4): 6(27%) | share of Reduction, oxidation, +(H2) +(O) metabolites in ∑ n ([2]; pH 7.4): 8(36%) | ∑ n, total number of oxidized metabolites ([2]; pH 7.4): 22

C[C@H]1CCCC(=O)CCC/C=C/c2cc(O)cc(O)c2C(=O)O1 [ZEN, zearalenone]
Total Number of Glucuronides [5]: 10 | converted into glucoronides [5]: 99% | glucuronides of oxidized metabolites and double glucuronides (minor products) [5]: 8% | glucuronides of parent toxins at position C-14 [5]: 86% | share of species, Figure 7 pie [5]: 1% | sum of parent glucuronides [5]: 91% | LC-MS Library: metabolites generated [1]: Phase I metabolites: (-(H2) +(O))-ZEN, (+(O))-ZEN, (+(H2)+ (O))-ZEN Glucuronides: Gluc-16-ZEN, Gluc-14-ZEN, Gluc-(+O)-ZEN, 2xGluc-ZEN | percentage of metabolized parent toxin in phase I reactions ([2]; pH 7.4): 27% | Number of Metabolites (n): Desaturation oxidation, −(H2) +(O2) ([2]; pH 7.4): 0 | Number of Metabolites (n): Desaturation, oxidation, −(H2) +(O) ([2]; pH 7.4): 1 | Number of Metabolites (n): Desaturation, oxidation, −(H4) +(O) ([2]; pH 7.4): 0 | Number of Metabolites (n): Oxidation, +(O2) ([2]; pH 7.4): 0 | Number of Metabolites (n): Oxidation, −(H4) +(O2) ([2]; pH 7.4): 0 | Number of Metabolites (n): Reduction, oxidation, +(H2) +(O) ([2]; pH 7.4): 2 | share of Oxidation +(O) metabolites in ∑ n ([2]; pH 7.4): 9(75%) | ∑ n, total number of oxidized metabolites ([2]; pH 7.4): 12

C[C@H]1CCC[C@H](O)CCCCCc2cc(O)cc(O)c2C(=O)O1 [α-ZAL, 7-α-hydroxy-zearalanol]
percentage of metabolized parent toxin in phase I reactions [2]: 29%

C[C@H]1CCC[C@H](O)CCC/C=C/c2cc(O)cc(O)c2C(=O)O1 [α-ZOL, 7-α-hydroxy-zearalenol]
percentage of metabolized parent toxin in phase I reactions [2]: 70%

C[C@H]1CCC[C@@H](O)CCCCCc2cc(O)cc(O)c2C(=O)O1 [β-ZAL, 7-β-hydroxy-zearalanol]
percentage of metabolized parent toxin in phase I reactions [2]: 23%
